ChEMBL document CHEMBL3124919, “Design, synthesis and biological evaluation of 3-[4-(7-chloro-quinolin-4-yl)-piperazin-1-yl]-propionic acid hydrazones as antiprotozoal agents” (Eur J Med Chem, 2014)
Calls of active or inactive are those of the source. The calls are words filed in the database; no cut-off is given here.

What was measured:
[1] = test system: Plasmodium falciparum; experiment: Antimicrobial activity against erythrocytic stage of chloroquine-resistant Plasmodium falciparum W2 infected in human erythrocytes assessed as [3H]hypoxanthine incorporation at 1 ug/ml after 24 hrs by beta-radiation counting analysis; assay type: functional
[2] = test system: Entamoeba histolytica; experiment: Antiprotozoal activity against Entamoeba histolytica HM-1:IMSS trophozoites after 72 hrs by microdilution method; assay type: functional, organism-based
[3] = Cytotoxicity against human erythrocytes assessed as hemolysis at 25 uM after 1 hr by spectrophotometry; assay type: cell-based; conditions: erythrocyte
[4] = test system: Plasmodium falciparum; experiment: Antimicrobial activity against erythrocytic stage of chloroquine-resistant Plasmodium falciparum W2 infected in human erythrocytes assessed as [3H]hypoxanthine incorporation after 24 hrs by beta-radiation counting analysis; assay type: functional, organism-based
[5] = Cytotoxicity against BALB/c mouse splenocytes assessed as [3H]-thymidine incorporation after 24 hrs by beta-radiation counting analysis relative to control; assay type: cell-based; conditions: Splenocyte
[6] = Inhibition of beta-hematin formation at 2.5 mM after 24 hrs by spectrophotometry; assay type: physicochemical; conditions: 2500 µM
[7] = test system: Plasmodium falciparum; experiment: Antimicrobial activity against ring stage chloroquine-resistant Plasmodium falciparum W2 infected in human erythrocytes assessed as inhibition of schizont stage parasite growth at 0.5 to 1 uM after 48 hrs by light microscopy; assay type: functional, organism-based
[8] = test system: Entamoeba histolytica; experiment: Ratio of metronidazole IC50 to compound IC50 for Entamoeba histolytica HM-1:IMSS trophozoites; assay type: functional
[9] = Selectivity index, ratio of IC50 for BALB/c mouse splenocytes to IC50 for Entamoeba histolytica HM-1:IMSS trophozoites
[10] = Plasmodium falciparum, W2, read-out: IC50

Structure (SMILES)	inhibition at 1 µg/mL [1]	IC50 [2]	IC50 [4, 10]	IC50 [5]	other results
Cc1ccc(/C=N/NC(=O)CCN2CCN(c3ccnc4cc(Cl)ccc34)CC2)cc1	81.4%	8.1 µM	–	–	–
O=C(CCN1CCN(c2ccnc3cc(Cl)ccc23)CC1)N/N=C/c1ccccn1	0%	> 100 µM	–	–	–
O=C(CCN1CCN(c2ccnc3cc(Cl)ccc23)CC1)N/N=C/c1c[nH]c2ccccc12	81.5%	9.6 µM	3.3 µM	5.7 µM	Activity [3]: Non-toxic; inhibition (INH) [6]: 43.3%
O[C@@H](c1cc(C(F)(F)F)nc2c(C(F)(F)F)cccc12)[C@H]1CCCCN1 (relative stereo) [(S,R)-MEFLOQUINE]	–	–	0.04 µM	9.5 µM	–
O=C(CCN1CCN(c2ccnc3cc(Cl)ccc23)CC1)N/N=C/c1ccc2c(c1)OCO2	27.8%	> 100 µM	–	–	–
O=C(CCN1CCN(c2ccnc3cc(Cl)ccc23)CC1)N/N=C/c1cccc(Cl)c1	97.3%	7.7 µM	–	> 100 µM	–
COc1cc(/C=N/NC(=O)CCN2CCN(c3ccnc4cc(Cl)ccc34)CC2)ccc1O	99.1%	21.3 µM	2.1 µM	9.4 µM	Activity [3]: Non-toxic; inhibition (INH) [6]: 50.7%
CCc1ccc(/C=N/NC(=O)CCN2CCN(c3ccnc4cc(Cl)ccc34)CC2)cc1	97.8%	11.1 µM	–	–	–
CCOc1ccccc1/C=N/NC(=O)CCN1CCN(c2ccnc3cc(Cl)ccc23)CC1	28.1%	> 100 µM	–	–	–
COc1ccc(/C=N/NC(=O)CCN2CCN(c3ccnc4cc(Cl)ccc34)CC2)cc1OC	98.4%	11.6 µM	–	–	–
O=C(CCN1CCN(c2ccnc3cc(Cl)ccc23)CC1)N/N=C/c1ccccc1C(F)(F)F	59.6%	8.1 µM	–	–	–
CCOC(OCC)c1ccc(/C=N/NC(=O)CCN2CCN(c3ccnc4cc(Cl)ccc34)CC2)cc1	71.7%	> 100 µM	–	–	–
O=C(CCN1CCN(c2ccnc3cc(Cl)ccc23)CC1)N/N=C/c1cccc([N+](=O)[O-])c1	19.9%	12.6 µM	–	–	–
O=C(CCN1CCN(c2ccnc3cc(Cl)ccc23)CC1)N/N=C/c1ccccc1	93.3%	6.6 µM	0.2 µM	0.3 µM	–
O=C(CCN1CCN(c2ccnc3cc(Cl)ccc23)CC1)N/N=C/c1ccc([N+](=O)[O-])cc1	38.4%	0.95 µM	–	12.1 µM	–
O=C(CCN1CCN(c2ccnc3cc(Cl)ccc23)CC1)N/N=C/c1cc(Br)c(O)c(Br)c1	28%	6.6 µM	–	–	IC50 [4]: Not Active
CC(C)c1ccc(/C=N/NC(=O)CCN2CCN(c3ccnc4cc(Cl)ccc34)CC2)cc1	97.5%	17.1 µM	1.7 µM	7.9 µM	Activity [3]: Non-toxic; inhibition (INH) [6]: 94%
O=C(CCN1CCN(c2ccnc3cc(Cl)ccc23)CC1)N/N=C/c1ccccc1O	98.9%	25.6 µM	0.33 µM	11.5 µM	Activity [3]: Non-toxic; Activity [7]: Active; inhibition (INH) [6]: 83.2%

Structure (SMILES)	inhibition at 1 µg/mL [1]	IC50 [2]	IC50 [4, 10]	IC50 [5]	other results
O=C(CCN1CCN(c2ccnc3cc(Cl)ccc23)CC1)N/N=C/c1ccccc1Cl	97.9%	12.3 µM	0.78 µM	10.8 µM	Activity [3]: Non-toxic; inhibition (INH) [6]: 87.3%
O=C(CCN1CCN(c2ccnc3cc(Cl)ccc23)CC1)N/N=C/c1ccc(Cl)cc1	98.4%	87.2 µM	1.4 µM	0.2 µM	–
COc1cc(/C=N/NC(=O)CCN2CCN(c3ccnc4cc(Cl)ccc34)CC2)c(Br)c(OC)c1OC	42.9%	3.7 µM	–	9.6 µM	IC50 [4]: Not Active
COc1cc(/C=N/NC(=O)CCN2CCN(c3ccnc4cc(Cl)ccc34)CC2)ccc1OC(C)C	98.6%	15.5 µM	4.5 µM	8.8 µM	Activity [3]: Non-toxic; inhibition (INH) [6]: 15.7%
COc1cc(/C=N/NC(=O)CCN2CCN(c3ccnc4cc(Cl)ccc34)CC2)cc(Br)c1O	41.5%	20.5 µM	–	–	IC50 [4]: Not Active
CCOC(=O)COc1ccc(/C=N/NC(=O)CCN2CCN(c3ccnc4cc(Cl)ccc34)CC2)cc1OC	71.7%	> 100 µM	–	–	–
COc1cc(/C=N/NC(=O)CCN2CCN(c3ccnc4cc(Cl)ccc34)CC2)cc(OC)c1OC	47.4%	12.4 µM	–	–	–
Cc1ncc([N+](=O)[O-])n1CCO [METRONIDAZOLE]	–	1.5 µM	–	5.4 µM	–
CCN(CC)CCCC(C)Nc1ccnc2cc(Cl)ccc12 (configuration not stated) [CHLOROQUINE]	–	–	–	–	inhibition (INH) [6]: 87.1%
CCOc1ccc(/C=N/NC(=O)CCN2CCN(c3ccnc4cc(Cl)ccc34)CC2)cc1	14.9%	12 µM	–	–	–
O=C(CCN1CCN(c2ccnc3cc(Cl)ccc23)CC1)N/N=C/c1ccc(O)cc1	80.6%	> 100 µM	–	–	–
CC(C)Oc1ccc(/C=N/NC(=O)CCN2CCN(c3ccnc4cc(Cl)ccc34)CC2)cc1	98%	5.3 µM	0.8 µM	3.6 µM	–
NNC(=O)CCN1CCN(c2ccnc3cc(Cl)ccc23)CC1	74.1%	–	41.7 µM	> 100 µM	inhibition (INH) [6]: 21.7%
COc1cc(/C=N/NC(=O)CCN2CCN(c3ccnc4cc(Cl)ccc34)CC2)ccc1OC(C)=O	0%	0.13 µM	–	15.8 µM	Ratio IC50 [8]: 10; Ratio IC50 [9]: 121
COc1ccc(OC)c(/C=N/NC(=O)CCN2CCN(c3ccnc4cc(Cl)ccc34)CC2)c1	37.4%	8.2 µM	–	–	–
COc1ccc(/C=N/NC(=O)CCN2CCN(c3ccnc4cc(Cl)ccc34)CC2)cc1	43%	19.7 µM	–	–	–
O=C(CCN1CCN(c2ccnc3cc(Cl)ccc23)CC1)N/N=C/c1ccccc1[N+](=O)[O-]	73.1%	11.3 µM	–	–	–
CN(C)c1ccc(/C=N/NC(=O)CCN2CCN(c3ccnc4cc(Cl)ccc34)CC2)cc1	98%	15.2 µM	1.3 µM	> 100 µM	Activity [3]: Non-toxic; inhibition (INH) [6]: 94.2%
